In paper PMC11079024, “Identification of a family of species-selective complex I inhibitors as potential anthelmintics” (Nature Communications, 2024):
Like-named read-outs stand apart in the source and are kept apart here.

Columns and labels:
[1] = test system: ben-1 mutant (ECA882) C. elegans; experiment: microbe, parasite or virus in culture; conditions: Caenorhabditis elegans; for viability at 1 µM / viability at 2 µM / viability at 3.9 µM / viability at 15.6 µM / viability at 31.3 µM / viability at 62.5 µM / viability at 125 µM / viability at 250 µM / viability at 500 µM / viability at 1000 µM: read-out: C. elegans ben-1(e1880) development/viability
Procedure, shortened: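 L1 larvae (~2 worms/μL in M9) in liquid NGM with 2-fold concentrated E. coli HB101, compound at 1% DMSO, 6 days at 20 °C shaking 165 rpm. Well images scored as summed worm-associated pixels, normalized to DMSO controls; relative viability averaged over at least three biological replicates.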

L1 wild-type C. elegans [2] = test system: L1 wild-type C. elegans
in vitro = conditions: human; for viability at 2 days, 3.13 µM / viability at 2 days, 6.25 µM / viability at 2 days, 12.5 µM / viability at 2 days, 25 µM / viability at 2 days, 50 µM / viability at 2 days, 100 µM: HEK293 cells (Flp-In-293), HEK293 viability
L1 wild-type C. elegans [3] = experiment: microbe, parasite or virus in culture; conditions: Caenorhabditis elegans, read-out: C. elegans KCN Survival Assay LC50, estimated from fitted dose-response curves; mean of at least two biological replicates
[4] = read-out: C. elegans (ben-1) Development & Viability Assay LC50
[5] = read-out: C. elegans ben-1 log10 LC50 (converted)
[6] = 50 μM, KCN survival assay, hit = relative motility below 0.25
[7] = Dose 0.2 µM, mean of at least three biological replicates
[8] = HEK293 Cell Viability Assay LC50, HEK293 cells, estimated from fitted dose-response curves, mean of at least two biological replicates
[9] = 50 μM compound, hit = relative motility below 0.25 3 hours after removal of KCN
[10] = HEK293 Cell Viability Assay LC50, HEK293 cells, estimated from fitted dose-response curves

Row | Structure (SMILES) | LC50 [1, 4] | LC50 [1, 5] | Screen "Hit" (L1 wild-type C. elegans [2]; [6]) | C. elegans KCN Survival (L1 wild-type C. elegans [2]; [7]) | C. elegans KCN Survival (L1 wild-type C. elegans [2]; Dose 0.39 µM) | C. elegans KCN Survival (L1 wild-type C. elegans [2]; Dose 1.56 µM) | C. elegans KCN Survival (L1 wild-type C. elegans [2]; Dose 3.13 µM) | C. elegans KCN Survival (L1 wild-type C. elegans [2]; Dose 6.25 µM) | C. elegans KCN Survival (L1 wild-type C. elegans [2]; Dose 12.5 µM) | C. elegans KCN Survival (L1 wild-type C. elegans [2]; Dose 25 µM) | C. elegans KCN Survival (L1 wild-type C. elegans [2]; Dose 50 µM) | C. elegans KCN Survival (L1 wild-type C. elegans [2]; Dose 100 µM) | viability at 2 days, 3.13 µM (in vitro) | viability at 2 days, 6.25 µM (in vitro) | viability at 2 days, 12.5 µM (in vitro) | viability at 2 days, 25 µM (in vitro) | viability at 2 days, 50 µM (in vitro) | viability at 2 days, 100 µM (in vitro) | LC50 (L1 wild-type C. elegans [3]) | CC50 at 2 days (in vitro; [8]) | further results
1 | FC(F)(F)c1cccc(OCCCCn2cnc3ccccc32)c1 [Compound 7925004] | 47.3 µM | 47.3 µM | Y (hits were identified as compounds that reduced relative motility below 0.25 (75% reduction)) | 1.053 | 1.068 | 1.004 | 1.026 | 0.948 | 0.632 | 0.094 | 0.092 | 0.126 | 99.3% | 99.5% | 100% | 61.3% | 16.2% | 6.8% | 13.9 µM |  | viability at 1 µM [1]: 93.7%; viability at 2 µM [1]: 95.4%; viability at 3.9 µM [1]: 96.9%; viability at 15.6 µM [1]: 76.5%; viability at 31.3 µM [1]: 75.3%; viability at 62.5 µM [1]: 28%; viability at 125 µM [1]: 3.4%; viability at 250 µM [1]: 2.3%; viability at 500 µM [1]: 2.6%; viability at 1000 µM [1]: 1.1%; CC50 at 2 days (in vitro): 29.2 µM
2 | Clc1ccc(SCCCCn2cnc3ccccc32)cc1 [Compound 7925515] | 40.8 µM | 40.8 µM | Y (hits were identified as compounds that reduced relative motility below 0.25 (75% reduction)) | 0.966 | 1.005 | 0.967 | 0.917 | 0.704 | 0.109 | 0.129 | 0.146 | 0.182 | 83.6% | 92.4% | 94.2% | 96.8% | 55.5% | 12.7% | 6.74 µM | 57.3 µM | viability at 1 µM [1]: 92.2%; viability at 2 µM [1]: 97%; viability at 3.9 µM [1]: 94.8%; viability at 15.6 µM [1]: 84.7%; viability at 31.3 µM [1]: 65.4%; viability at 62.5 µM [1]: 25%; viability at 125 µM [1]: 5%; viability at 250 µM [1]: 3.7%; viability at 500 µM [1]: 3.1%; viability at 1000 µM [1]: 1%
3 | Cc1ccc2nc(C(C)c3ccc(CC(C)C)cc3)[nH]c2c1 (stereo not shown) [STL482096] | > 1000 µM | > 500 µM |  |  |  |  |  |  |  |  |  |  |  |  |  |  |  |  | 6.76 µM |  | LC50 ([1]; read-out: C. elegans ben-1 LC50): > 500 µM; Screen "Hit" (L1 wild-type C. elegans [2]; [9]): Y (hits were identified as compounds that reduced relative motility below 0.25 (75% reduction)); CC50 at 2 days (in vitro): < 12.5 µM
4 | Clc1ccc(Cn2cnc3ccccc32)c(Cl)c1 [Compound 6750659] | 42.2 µM | 42.3 µM | Y (hits were identified as compounds that reduced relative motility below 0.25 (75% reduction)) | 0.888 | 0.896 | 0.908 | 0.544 | 0.267 | 0.023 | 0.000 | 0.000 | 0.000 | 95.5% | 100% | 100% | 100% | 76% | 19.4% | 4.28 µM | 72.7 µM | 
5 | Cc1nc2ccccc2n1Cc1ccc(C(C)C)cc1 [Compound 7353551] | 91.5 µM | 91.6 µM |  |  |  |  |  |  |  |  |  |  |  |  |  |  |  |  | 7 µM | 46.2 µM | Screen "Hit" (L1 wild-type C. elegans [2]; [9]): Y (hits were identified as compounds that reduced relative motility below 0.25 (75% reduction))
6 | CCCOc1ccc(Cn2cnc3ccccc32)cc1 [Compound 7355741] | 85.3 µM | 85.3 µM | Y (hits were identified as compounds that reduced relative motility below 0.25 (75% reduction)) | 0.923 | 0.831 | 0.783 | 1.007 | 0.620 | 0.122 | 0.000 | 0.000 | 0.000 | 99.8% | 100% | 100% | 100% | 78.9% | 30.3% | 7 µM | 76.2 µM | 
7 | CC(C)Cc1ccc(C(C)c2nc3ccccc3n2C(C)C)cc1 (stereo not shown) [STK951903] | 731 µM | 731 µM |  |  |  |  |  |  |  |  |  |  |  |  |  |  |  |  | 25.1 µM |  | Screen "Hit" (L1 wild-type C. elegans [2]; [9]): Y (hits were identified as compounds that reduced relative motility below 0.25 (75% reduction)); CC50 at 2 days (in vitro; [10]): 29.2 µM
8 | Clc1ccc(OCCn2cnc3ccccc32)c(Cl)c1 [Compound 7221649] | 37.2 µM | 37.2 µM |  | 0.959 | 0.956 | 1.007 | 1.008 | 0.946 | 0.599 | 0.152 | 0.156 | 0.254 | 100% | 100% | 100% | 100% | 61.2% | 7.3% | 13 µM |  | viability at 1 µM [1]: 86.6%; viability at 2 µM [1]: 85.6%; viability at 3.9 µM [1]: 87.8%; viability at 15.6 µM [1]: 91.2%; viability at 31.3 µM [1]: 64.6%; viability at 62.5 µM [1]: 3.9%; viability at 125 µM [1]: 37.3%; Screen "Hit" (L1 wild-type C. elegans [2]; 50 μM, hit = relative motility below 0.25 3 hours after removal of KCN): Y (hits were identified as compounds that reduced relative motility below 0.25 (75% reduction)); CC50 at 2 days (in vitro; [10]): 55.3 µM
9 | c1ccc(CCCCCCCCCCc2nc3ccccc3[nH]2)cc1 [STL442376] | 640 µM | 640 µM |  |  |  |  |  |  |  |  |  |  |  |  |  |  |  |  | 5.61 µM | < 6.25 µM | Screen "Hit" (L1 wild-type C. elegans [2]; [9]): Y (hits were identified as compounds that reduced relative motility below 0.25 (75% reduction))
